In patent publication US20250143990A1, “SKIN MICROBIOME FRIENDLY SUNSCREENS” (BASF SE, priority 2022, published 2025):

Assay: Solubility in water
Format: physicochemical

Question: For `CC(C)(C)CC(C)(C)c1cc(Cc2cc(C(C)(C)CC(C)(C)C)cc(-n3nc4ccccc4n3)c2O)c(O)c(-n2nc3ccccc3n2)c1` [2,2′-methylene bis[6-(2H-benzotriazol-2-yl)-4-(1,1,3,3-tetramethylbutyl)phenol]], which solubility in water is on record?
Answer: The solubility in water was “ng/L range”.
